Measured values: PMC11470524, “A venom peptide-induced NaV channel modulation mechanism involving the interplay between fixed channel charges and ionic gradients” (The Journal of Biological Chemistry, 2024)
Like-named read-outs stand apart in the source and are kept apart here. Where no end group is shown, it is not given here.

What was measured:
NaV channels = conditions: cited from earlier work
human NaV1.7 channel [1] = molecular target: T1, human NaV1.7 channel (Homo sapiens, UniProt Q15858); assay: Cumulative concentration-response, persistent (non-inactivating) current I40ms/Ipeak, NaV1.7; type: cell-based; conditions: NaV1.7, HEK293, ratio of current at 40 ms to peak current, mean ± SD
T1 sequence (Q15858 whole entry): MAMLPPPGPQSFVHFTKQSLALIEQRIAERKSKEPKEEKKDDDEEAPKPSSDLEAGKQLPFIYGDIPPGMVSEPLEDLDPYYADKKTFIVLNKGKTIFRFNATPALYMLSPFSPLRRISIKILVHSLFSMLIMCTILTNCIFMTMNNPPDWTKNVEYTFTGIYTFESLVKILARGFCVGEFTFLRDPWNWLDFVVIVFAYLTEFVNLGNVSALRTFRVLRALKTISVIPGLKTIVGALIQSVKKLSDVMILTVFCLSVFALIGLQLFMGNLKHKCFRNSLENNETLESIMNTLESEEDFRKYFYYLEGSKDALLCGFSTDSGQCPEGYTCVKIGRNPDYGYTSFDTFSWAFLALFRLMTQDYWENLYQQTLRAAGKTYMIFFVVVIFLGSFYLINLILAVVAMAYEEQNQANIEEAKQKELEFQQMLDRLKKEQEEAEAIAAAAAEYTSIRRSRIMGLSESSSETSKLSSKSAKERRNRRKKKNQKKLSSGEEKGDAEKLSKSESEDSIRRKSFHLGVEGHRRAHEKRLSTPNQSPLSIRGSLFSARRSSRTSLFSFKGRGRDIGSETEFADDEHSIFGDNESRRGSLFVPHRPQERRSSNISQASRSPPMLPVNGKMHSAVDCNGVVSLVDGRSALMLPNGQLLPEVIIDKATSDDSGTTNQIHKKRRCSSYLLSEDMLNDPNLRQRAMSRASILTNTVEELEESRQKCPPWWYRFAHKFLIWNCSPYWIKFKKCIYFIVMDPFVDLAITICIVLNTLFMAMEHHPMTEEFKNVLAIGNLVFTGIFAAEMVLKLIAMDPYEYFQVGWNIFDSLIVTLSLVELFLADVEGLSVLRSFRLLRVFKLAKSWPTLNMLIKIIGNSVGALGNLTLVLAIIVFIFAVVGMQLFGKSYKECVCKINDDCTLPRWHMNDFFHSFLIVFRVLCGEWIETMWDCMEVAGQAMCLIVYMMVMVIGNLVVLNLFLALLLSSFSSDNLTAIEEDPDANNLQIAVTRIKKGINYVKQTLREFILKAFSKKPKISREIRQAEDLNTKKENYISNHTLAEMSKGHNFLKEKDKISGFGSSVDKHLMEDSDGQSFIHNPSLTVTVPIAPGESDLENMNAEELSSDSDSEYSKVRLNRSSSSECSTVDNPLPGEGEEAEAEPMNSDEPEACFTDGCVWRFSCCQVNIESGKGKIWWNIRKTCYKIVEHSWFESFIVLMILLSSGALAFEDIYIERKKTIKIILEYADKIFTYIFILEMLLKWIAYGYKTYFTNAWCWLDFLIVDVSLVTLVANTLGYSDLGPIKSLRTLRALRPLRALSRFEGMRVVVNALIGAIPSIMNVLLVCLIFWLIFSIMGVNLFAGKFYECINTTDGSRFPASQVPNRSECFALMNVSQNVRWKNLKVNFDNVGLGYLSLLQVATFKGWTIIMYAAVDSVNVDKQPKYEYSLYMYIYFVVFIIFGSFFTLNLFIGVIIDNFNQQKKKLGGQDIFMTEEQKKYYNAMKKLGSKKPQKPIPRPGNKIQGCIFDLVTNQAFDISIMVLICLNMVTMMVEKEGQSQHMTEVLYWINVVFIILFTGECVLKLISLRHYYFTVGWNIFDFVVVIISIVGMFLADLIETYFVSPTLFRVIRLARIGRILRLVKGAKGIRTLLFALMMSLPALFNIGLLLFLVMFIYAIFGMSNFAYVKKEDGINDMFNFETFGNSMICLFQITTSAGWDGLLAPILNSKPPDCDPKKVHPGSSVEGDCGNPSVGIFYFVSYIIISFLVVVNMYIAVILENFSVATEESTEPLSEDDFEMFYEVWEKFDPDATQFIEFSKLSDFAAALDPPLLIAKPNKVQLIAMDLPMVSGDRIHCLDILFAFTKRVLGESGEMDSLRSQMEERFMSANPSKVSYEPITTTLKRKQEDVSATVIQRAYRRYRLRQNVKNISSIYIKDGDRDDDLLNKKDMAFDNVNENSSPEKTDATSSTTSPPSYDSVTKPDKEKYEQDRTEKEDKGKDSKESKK

human NaV1.7 channel [2] = molecular target: T1, human NaV1.7 channel; assay: Whole-cell current-voltage (I-V) relationship, NaV1.7, standard solution; type: cell-based
Experimental: Data are expressed as mean ± SD.
Whole-cell current-voltage (I-V) recordings were recorded with an EPC 10 USB Heka patch clamp amplifier or an Axon 700B amplifier (Axon Instruments). Currents were filtered (−3 dB, 4-pole Bessel) at 2 kHz and sampled at 50 kHz. […] Leak subtraction was done using a p/4 protocol (4 pulses at a delay of 100 μs). Cell responses were accepted for analysis if the series resistance was ≤ 12 MΩ and was compensated for by ≥ 60%. […] The extracellular solution contained (in mM): 140 NaCl, 5 KCl, 1 MgCl2, 10 Hepes, and 10 D-glucose, adjusted to pH 7.4 with NaOH, whereas the intracellular solution contained (in mM) the following: 140 CsCl, 10 NaCl, 2 10 Hepes, and 5 EGTA adjusted to pH 7.4 with CsOH.
Whole-cell conductance (G) was calculated using the following relation.(1) G=I/(Vm−Vrev) Where, I is the peak current, Vm is the corresponding step voltage and Vrev is the reversal potential (potential where current direction changes).

huwentoxin-IV
Effect on NaV channels (NaV channels; ref [20], [21]): inhibit NaV channel currents by stabilizing S4 helices in the resting state

ProTx-II: tarantula toxin
Effect on NaV channels (NaV channels; ref [20], [21]): inhibit NaV channel currents by stabilizing S4 helices in the resting state

COc1ccc(C(=O)O[C@H]2CC[C@@]3(C)[C@@H]4CC[C@H]5[C@]6(O)C[C@H](O)[C@@]7(O)[C@@H](CN8C[C@@H](C)CC[C@H]8[C@@]7(C)O)[C@]6(O)C[C@@]53O[C@]24O)cc1OC [veratridine]
Effect on NaV channels (NaV channels; ref [15], [17], [18]): direct channel activators (agonists)

LAPIFALLLLSGLFSLPALQHYIAANYIN-NH2 [Ta3a[E24A + K25A]]
Efficacy (maximum response), I40ms/Ipeak (human NaV1.7 channel [1]): 0.35 ± 0.33
I-V profile versus control (human NaV1.7 channel [2]; 30 nM analog, n = 4 cells): indistinguishable from control
Leftward shift of V1/2 (human NaV1.7 channel [2]; 1 μM analog, n = 7 cells): −4.5 mV
Leftward shift of Vrev (human NaV1.7 channel [2]; 1 μM analog, n = 7 cells): −28 mV
Reduction in peak current (human NaV1.7 channel [2]; 1 μM analog, n = 7 cells): ~2 fold

batrachotoxin
Effect on NaV channels (NaV channels; ref [15], [17], [18]): direct channel activators (agonists)
Effect on ion selectivity (NaV channels; ref [15], [17]): alter ion selectivity
